Source: patent US5223411A, “Nonionic surfactants having a carbamoyl group and process for treatment of a proteins containing medium using the same” (Centre National de la Recherche Scientifique (CNRS), priority 1990, dated 1993)
“And” between values parts separate entries of the source, which are not always exact repeats. Equal values may be shown once. Read-outs that look alike come from different tables or passages of the source. Values belong to the compound of their own block, whether it stands above or below them.

Assays:
[1] = test system: Escherichia coli β-lactamase; test: Enzyme assay, β-lactamase (Nitrocefin substrate); format: biochemical; conditions: for Km: read-out: Km ± SD
Description: (§1) P. multocida succinate dehydrogenase was assayed as described by Osborn et al in […] Na phosphate buffer (pH 7.4) containing 10 mM KCN, Na succinate (concentration range: 0.25 to 25 mM), 30 ug of thiazolyl blue, and 10 μg of phenazine methosulfate per milliliter. The samples contained 25, 50, or 100 μg of plasma membrane protein per milliliter and the absorbance at 550 nm was recorded for 10 min at 25° C.P. multocida NADH oxidase was assayed in 50 mM Tris-HCl buffer (pH 8.0) containing 0.2 mM dithiothreitol and 0.12 mM NADH. The samples contained 50,75, or 100 μg of plasma membrane protein per milliliter and the absorbance at 340 nm was recorded as above. The activity of the soluble form of Escherichia coli β-lactamase was measured by using Nitrocefin as substrate and by monitoring the rate of increase in the absorbance at 488 nm for 3 min at 25° C. One milliliter of 20 mM Na phosphate buffer (pH 7.4) contained Nitrocefin (concentration range: 5 to 20 uM) and 0.76 ug (i.e., 2×10^-3 units) of β-lactamase.
(§2) The four enzyme activities were measured in the absence of surfactants and in the presence of 3 or 30 mM HECAMEG. Controls were also performed with 35 mM SDS. Km and V max were determined from Lineweaver-Burk plots, each point being the average of three estimations.

[2] = target: T1, bacteriorhodopsin (Halobacterium salinarum, UniProt P02945); test: Absorbance spectrum of bacteriorhodopsin; set-up: species or system H. halobium; conditions: native 558 nm
T1 construct: The untrated (native) purple membrane of H. halobium; endogenous in cells; host or cells: Halobacterium halobium R1, purified purple membrane
T1 sequence (P02945 14-262): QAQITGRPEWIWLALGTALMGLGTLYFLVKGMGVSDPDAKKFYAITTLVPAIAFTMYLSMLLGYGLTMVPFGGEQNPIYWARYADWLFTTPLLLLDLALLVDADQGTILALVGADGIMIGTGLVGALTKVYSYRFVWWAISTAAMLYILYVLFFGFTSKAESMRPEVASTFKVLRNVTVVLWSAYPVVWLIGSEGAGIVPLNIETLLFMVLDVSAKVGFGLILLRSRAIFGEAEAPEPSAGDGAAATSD
Description: Absorbance of dark-adapted bacteriorhodopsin was recorded between 350 and 700 nm. […] When the membrane was solubilized with 1% SDS, leading to the extensive denaturation of bacteriorhodopsin, the absorbance at 558 nm was lost to the benefit of a new maximum at 390 nm, corresponding to free retinal dissolved in SDS. These two spectra were thus representative, respectively, of the native and denatured forms of bacteriorhodopsin. Upon extraction with HECAMEG, the absorption spectrum of the protein was similar to that of the native state protein with, however, a slight blue shift in the absorption maximum (λmax=550 nm). Some absorption was also recorded at 390 nm, but it was much lower than that in SDS, even when HECAMEG was used at concentrations up to 0.1 M. Because of the scatering of light by membrane particles, the 390-nm peak could not be observed in untreated samples.

[3] = test system: P. multocida succinate dehydrogenase; test: Enzyme assay, succinate dehydrogenase; format: biochemical, Pasteurella multocida; conditions: for Km: read-out: Km ± SD
Description: as §1, §2

[4] = target: T2, Bovine milk lactoperoxidase (Bos taurus, UniProt P80025); test: Enzyme assay, lactoperoxidase (o-dianisidine substrate); format: biochemical
T2 construct: from tissue; host or cells: bovine milk
Description: Bovine milk lactoperoxidase was assayed according to George except that o-dianisidine was used as the substrate instead of gaiacol. One milliliter of 20 mM Na phosphate buffer (pH 7.4) contained […] (concentration range: 0.06 to 0.9 mM) 1 mM o-dianisidine, and 25×10^-3 μg (i.e., 1.15×10^-3 units) of lactoper oxidase. The absorbance at 435 nm was recorded as for β-lactamase.
as §2

[5] = test system: P. multocida NADH oxidase; test: Enzyme assay, NADH oxidase; format: biochemical, Pasteurella multocida; conditions: for Km: read-out: Km ± SD
Description: as §1, §2

[6] = stated for comparison; cited from earlier work
[7] = CMC, spectrofluorometry (technique of Vendittis et al.); format: physicochemical; conditions: for CMC: spectrofluorometry at 4° and 20° C.
Description: (§3) The CMC of HECAMEG was colorimetrically determined with the iodine method of Ross and Olivier and the Coomassie blue G method of Rosenthal and Koussaie and spectrofluorometrically with the technique of Vendittis et al. In the latter case, excitation was performed at 370 nm and emission recorded at 490 nm.
(§4) The CMC of the detergent was estimated by three distinct spectrophotometric methods of OG (n-octylα-D glucopyranoside) was used for comparison. The iodine spectrophotometric assay indicated a CMC of 17 mM while values of 14.5 and 15 mM were obtained with Coomassie blue G, and 19.5 mM was obtained by spectrofluorometry at 4° and 20° C. The second method was not reliable with OG, while the two other methods indicated for this surfactant, as expected, a CMC of 25 mM.

[8] = CMC, iodine method of Ross and Olivier; format: physicochemical; conditions: iodine spectrophotometric assay
Description: as §3, §4

[9] = target: T3, bacteriorhodopsin from the purple membrane of H. halobium (Halobacterium salinarum, UniProt P02945); test: Membrane protein extraction with detergents, purple membrane
T3 construct: The untrated (native) purple membrane of H. halobium; endogenous in cells; host or cells: Halobacterium halobium R1, purified purple membrane
T3 sequence (P02945 14-262): T1 sequence (P02945 14-262)
From the text: Spiroplasma melliferum B88 was cultivated and membranes were purified as described. The purple membrane of Halobium R1 was purified according to Oesterhelt and Stoeckenius (22). Pasteurella multocida was cultivated in liquid medium containing per liter 20 g of Tryptose (Difco), 1 g of glucose, 5 g of NaCl, and 2,5 g of yeast extract (Difco), pH 7.4. The cells were harvested by centrifugation and disrupted with a French press. Plasma membranes were isolated according the technique of Osborn and Munson.
In order to extract membrane proteins, 200 μl of a membrane suspension in 0.1 M Na phosphate buffer (pH 7.4) was mixed with 200 μl of detergent dissolved in water. After 90 min at room temperature, the mixture was centrifuged at 260,000 g for 15 min at 20° C. (Beckman TL-100 ultracentrifuge, TL A 100.1 rotor). The supernatant was recovered for further analysis, while the pellet was dispersed in 400 μl of 2% SDS in 50 mM Tris-HCl buffer (pH 8.0). After 60 min at room temperature, the mixture was centrifuged as above and the supernatant recovered for analysis.
It was possible to extract up to 75% of bacteriorhodopsin from the purple membrane and 40% of protein from the spiroplasmal membrane with 75 mM HECAMEG. This corresponds respectively to ratios of 9 and 26 ug of protein/μmol of detergent. The efficacy of the extraction was not improved by increasing the detergent concentration. […]

[10] = Stability of HECAMEG solutions; format: physicochemical; conditions: 4° C.
[11] = Detergent dialysis (Lipoprep apparatus); format: physicochemical; conditions: 30 mM in 50 mM Na phosphate pH 7.4, 5 kDa cutoff membranes, 25° C.
Description: Dialysis experiments with HECAMEG were performed with the Lipoprep apparatus using a three-compartment Teflon cell with two cellulose dialysis membranes (molecular mass cutoff 5 kDa). The central compartment was filled with 8 ml of 30 mM HECAMEG in 50 mM Na phosphate buffer, pH 7.4. The same buffer, but without detergent circulated through the two side compartment for 24 h at 25° C. Dialysis speed was estimated by measuring HECAMEG concentration within the central cell.
The dialyzability of HECAMEG was estimated by the use of the Lipoprep dialysis system under conditions corresponding to those used for the preparation of liposomes. […] Indeed, the concentration of HECAMEG in the central compartment of the cell dropped by 50% upon 3 h of dialysis and the surfactant was no longer detected after about 18 h.

[12] = Solubility in water, usual buffers and organic solvents; format: physicochemical
[13] = target: T4, spiralin, the main protein of the S. melliferum membrane (Spiroplasma melliferum, UniProt P21625)
T4 construct: Spiroplasma melliferum B88 was cultivated and membranes were purified as described; endogenous in cells; host or cells: Spiroplasma melliferum B88, purified membranes
T4 sequence (P21625 24-242): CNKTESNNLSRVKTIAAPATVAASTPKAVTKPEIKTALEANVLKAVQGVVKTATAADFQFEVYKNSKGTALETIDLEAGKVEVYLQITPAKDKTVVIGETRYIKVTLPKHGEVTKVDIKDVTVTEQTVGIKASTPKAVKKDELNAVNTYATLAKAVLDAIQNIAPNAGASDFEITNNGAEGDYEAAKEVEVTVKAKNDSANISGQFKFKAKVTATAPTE
Description: Since the membrane of melliferum has a complex protein composition, the protein extracted by HECAMEG was analyzed by SDS PAGE. Separation of polypeptides was performed in 100×100×4 mm gels in 40 mM Tris-20 mM Na acetate buffer (pH 7.4) containing 2 mM EDTA and 0.1% SDS. The upper gel contained 4.83% acrylamide and 0.17% bisacrylamide while the lower separating gel contained 7.72% acrylamide and 0.28% bisacrylamide. The samples contained 2% SDS and 0.12 M 2 mercaptoethanol and were heated at 60° C. for 5 min prior to electrophoresis. Bromphenol blue was used as the tracking dye. Protein bands were stained with Coomassie blue R-250 in an acetic acid/methanol/water mixture (1/4/5,v/v). […] Optimal selectivity was obtained with surfactant concentration in the 60 to 65 mM range.

[14] = CMC, Coomassie blue G method of Rosenthal and Koussaie; format: physicochemical
Description: as §3, §4

[15] = target: T5, spiralin (Spiroplasma melliferum, UniProt P21625); conditions: crossed immunoelectrophoresis, rabbit antibodies against S. melliferum membrane
T5 construct: Spiroplasma melliferum B88 was cultivated and membranes were purified as described; endogenous in cells; host or cells: Spiroplasma melliferum B88, purified membranes
T5 sequence (P21625 24-242): as above
Description: Antibodies directed against the S. melliferum membrane were prepared in rabbits as described. The hyperimmune sera were filtered through 0.45-μm-pore membranes and stored at -25° C. Crossed immunoelectrophoresis was performed according to the method of Laurell in 1% agarose gel in veronal buffer, pH 8.6 (I=0.03). After unprecipitaded proteins where eluted and gels were dried, immunoprecipitates were stained with Coomassie blue R-250.

Structure (SMILES): CCCCCCCCCCCCOS(=O)(=O)[O-].[Na+] [SDS, sodium dodecyl sulfate, reference compound]
- enzyme activity with SDS ([1]; 35 mM SDS): fully inhibited
- absorption maximum of bacteriorhodopsin preparation ([2]; membrane solubilized with 1% SDS): 390 nm
- enzyme activity upon treatment with SDS ([3]; 35 mM SDS): completely inhibited
- enzyme activity with SDS ([4]; 35 mM SDS): fully inhibited
- enzyme activity upon treatment with SDS ([5]; 35 mM SDS): completely inhibited

- CMC [7]: 25 mM
- CMC [8]: 25 mM
Structure (SMILES): CCCCCCCCO[C@H]1O[C@H](CO)[C@@H](O)[C@H](O)[C@H]1O [OG, n-octylα-D glucopyranoside, reference compound]
- CMC of comparison surfactants [6]: 25 mM

Structure (SMILES): CCCCCCCNC(=O)OC[C@H]1O[C@H](OC)[C@H](O)[C@@H](O)[C@@H]1O [HECAMEG, 6-0 (N-Heptylcarbamoyl) methyl α-D-glucopyranoside]
- ratio protein extracted per detergent ([9]; 75 mM HECAMEG, purple membrane): 9 ug of protein/μmol of detergent
- membrane protein extraction below the CMC ([9]; concentrations below the CMC): inefficient
- stability of solutions [10]: stable for several weeks
- CMC [7]: 19.5 mM
- critical micellar concentration (CMC) ([7]; summary value, method not named at the place): 19.5 mM and 6.5 g/l
- dialysis time after which surfactant was no longer detected [11]: about 18 h
- drop of concentration in the central compartment ([11]; upon 3 h of dialysis): 50%
- solubility in water ([12]; even at 0° C.): high solubility
- solubility ([12]; usual buffers, in currant buffers, at 4° C., read-out: solubility): > 60 mg/mL
- solubility ([12]; water, Tris-HCl and phosphate buffers, even at 0° C., read-out: solubility in water and usual buffers): ≥ 200000 µM
- solubility in water and organic solvents ([12]; water, alcohols, methylene chloride, tetrahydrofuranne, DMSO): very soluble
- change of Vmax ([1]; 30 mM surfactant): decreased threefold
- Vmax ± SD ([1]; HECAMEG 0.1%, 3 mM): 143 ± 16.5 µmol/min
- Km ([1]; HECAMEG 0.1%, 3 mM): 62 ± 10 µM
- Vmax ± SD ([1]; HECAMEG 1%, 30 mM): 30.5 ± 0.4 µmol/min
- Km ([1]; HECAMEG 1%, 30 mM): 18.1 ± 0.6 µM
- enzyme activity above the CMC ([1]; above the CMC): decreased
- effect on enzyme below the CMC ([1]; below the CMC): apparent activation
- absorption maximum (λmax) of bacteriorhodopsin ([2]; upon extraction with HECAMEG): 550 nm
- CMC [8]: 17 mM
- polypeptides extracted (including spiralin) of 28 detected in the membrane ([13]; 60 to 65 mM surfactant): 12
- solubilization of the fibril protein ([13]; S. melliferum membrane): not able to solubilize the fibril protein
- inhibition of enzyme by the surfactant [3]: not inhibited
- Vmax ± SD ([3]; HECAMEG 0.1%, 3 mM): 163 ± 41 µmol/min
- Km ([3]; HECAMEG 0.1%, 3 mM): 947 ± 52 µM
- Vmax ± SD ([3]; HECAMEG 1%, 30 mM): 357 µmol/min and 357 ± 50 µmol/min
- Km ([3]; HECAMEG 1%, 30 mM): 901 ± 65 µM
- effect on Km and Vmax below the CMC ([3]; below the CMC): neither Km nor Vmax was significantly modified
- change of Vmax ([4]; 30 mM surfactant): increased about threefold
- Vmax ± SD ([4]; HECAMEG 0.1%, 3 mM): (609 ± 30) × 10^-3 μmol/min
- Vmax ± SD ([4]; HECAMEG 1%, 30 mM): (1238 ± 4) × 10^-3 μmol/min
- enzyme activity above the CMC ([4]; above the CMC): increased
- effect on enzyme below the CMC ([4]; below the CMC): apparent activation
- CMC [14]: 14.5 mM and 15 mM
- antigenicity of spiralin after solubilization [15]: remained highly antigenic
- inhibition of enzyme by the surfactant [5]: not inhibited
- Vmax ± SD ([5]; HECAMEG 0.1%, 3 mM): 4.0 ± 0.5 µmol/min
- Km ([5]; HECAMEG 0.1%, 3 mM): 12.5 ± 1.2 µM
- Vmax ± SD ([5]; HECAMEG 1%, 30 mM): 10.3 ± 1.2 µmol/min and 10.3 µmol/min
- Km ([5]; HECAMEG 1%, 30 mM): 3.3 ± 0.6 µM
- change of affinity of the enzyme for its substrate ([5]; above the CMC (30 mM)): increased fourfold
- effect on Km and Vmax below the CMC ([5]; below the CMC): neither Km nor Vmax was significantly modified
